Test results taken from ChEMBL document CHEMBL1201862, “PubChem BioAssay data set” (2004).
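Five compound concentrations were applied to cells in 96-well plates for 48 hours; endpoints were derived by simple linear interpolation of the resulting dose-response curve. Abbreviation: GI50, concentration required for 50% inhibition of growth.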 Calls of active or inactive are those of the source. Cut-off read from the data, not from the text of the source: active = GI50 up to about 1.1 µM and inactive = higher.

How the values were obtained:
Assay in all cases: inhibition of tumour cell growth, NCI panel, 48 h
NCI-H522 = tested on: NCI-H522
NCI-H23 = tested on: NCI-H23
SNB-19 = tested on: SNB-19
Hs-578T = tested on: Hs-578T
K562 = tested on: K562
PC-3 = tested on: PC-3
OVCAR-4 = tested on: OVCAR-4
DU-145 = tested on: DU-145
SF-295 = tested on: SF-295
TK-10 = tested on: TK-10
EKVX = tested on: EKVX
U-251 = tested on: U-251
MDA-MB-435 = tested on: MDA-MB-435
OVCAR-8 = tested on: OVCAR-8
HCT-15 = tested on: HCT-15
SW-620 = tested on: SW-620
SNB-75 = tested on: SNB-75
A498 = tested on: A498
OVCAR-5 = tested on: OVCAR-5
ACHN = tested on: ACHN
COLO 205 = tested on: COLO 205
SF-539 = tested on: SF-539
SR = tested on: SR
M14 = tested on: M14
HCC 2998 = tested on: HCC 2998
HT-29 = tested on: HT-29
SK-MEL-28 = tested on: SK-MEL-28
UO-31 = tested on: UO-31
IGROV-1 = tested on: IGROV-1
MOLT-4 = tested on: MOLT-4
SF-268 = tested on: SF-268
A549 = tested on: A549
SK-OV-3 = tested on: SK-OV-3
T47D = tested on: T47D
CCRF-CEM = tested on: CCRF-CEM
CAKI-1 = tested on: CAKI-1
LOX IMVI = tested on: LOX IMVI
NCI/ADR-RES = tested on: NCI/ADR-RES
HOP-62 = tested on: HOP-62
BT-549 = tested on: BT-549
SN12C = tested on: SN12C
HL-60 = tested on: HL-60
RPMI-8226 = tested on: RPMI-8226
KM12 = tested on: KM12
SK-MEL-2 = tested on: SK-MEL-2
NCI-H460 = tested on: NCI-H460
SK-MEL-5 = tested on: SK-MEL-5
UACC-62 = tested on: UACC-62
NCI-H226 = tested on: NCI-H226
HOP-92 = tested on: HOP-92
MCF7 = tested on: MCF7
786-0 = tested on: 786-0
MDA-MB-231 = tested on: MDA-MB-231
OVCAR-3 = tested on: OVCAR-3
HCT-116 = tested on: HCT-116
UACC-257 = tested on: UACC-257
MDA-N = tested on: MDA-N
Malme-3M = tested on: Malme-3M
RXF 393 = tested on: RXF 393

## COc1ccc(/N=c2\ssc(C(=S)Nc3ccc(OC)cc3)c2S)cc1
NCI-H522
  GI50: > 100 µM (inactive)
NCI-H23
  GI50: > 100 µM (inactive)
SNB-19
  GI50: > 100 µM (inactive)
Hs-578T
  GI50: > 100 µM (inactive)
K562
  GI50: 37.7 µM (inactive)
PC-3
  GI50: > 100 µM (inactive)
OVCAR-4
  GI50: > 100 µM (inactive)
DU-145
  GI50: > 100 µM (inactive)
SF-295
  GI50: > 100 µM (inactive)
TK-10
  GI50: > 100 µM (inactive)
EKVX
  GI50: > 100 µM (inactive)
U-251
  GI50: 75.7 µM (inactive)
MDA-MB-435
  GI50: > 100 µM (inactive)
OVCAR-8
  GI50: 97.5 µM (inactive)
HCT-15
  GI50: 64.9 µM
SW-620
  GI50: > 100 µM (inactive)
SNB-75
  GI50: > 100 µM (inactive)
A498
  GI50: > 100 µM (inactive)
OVCAR-5
  GI50: > 100 µM (inactive)
ACHN
  GI50: > 100 µM (inactive)
COLO 205
  GI50: > 100 µM (inactive)
SF-539
  GI50: > 100 µM (inactive)
SR
  GI50: > 100 µM (inactive)
M14
  GI50: 71 µM (inactive)
HCC 2998
  GI50: 32.4 µM (inactive)
HT-29
  GI50: > 100 µM (inactive)
SK-MEL-28
  GI50: 6.68 µM (inactive)
UO-31
  GI50: > 100 µM (inactive)
IGROV-1
  GI50: > 100 µM (inactive)
MOLT-4
  GI50: > 100 µM (inactive)
SF-268
  GI50: > 100 µM (inactive)
A549
  GI50: 83.6 µM (inactive)
SK-OV-3
  GI50: > 100 µM (inactive)
T47D
  GI50: > 100 µM (inactive)
CCRF-CEM
  GI50: 31.6 µM (inactive)
CAKI-1
  GI50: > 100 µM (inactive)
LOX IMVI
  GI50: > 100 µM (inactive)
NCI/ADR-RES
  GI50: > 100 µM (inactive)
HOP-62
  GI50: > 100 µM (inactive)
BT-549
  GI50: > 100 µM (inactive)
SN12C
  GI50: > 100 µM (inactive)
HL-60
  GI50: 36.3 µM (inactive)
RPMI-8226
  GI50: > 100 µM (inactive)
KM12
  GI50: > 100 µM (inactive)
SK-MEL-2
  GI50: > 100 µM (inactive)
NCI-H460
  GI50: 39.6 µM (inactive)
SK-MEL-5
  GI50: > 100 µM (inactive)
UACC-62
  GI50: > 100 µM (inactive)
NCI-H226
  GI50: > 100 µM (inactive)
HOP-92
  GI50: > 100 µM (inactive)
MCF7
  GI50: 69 µM (inactive)
786-0
  GI50: > 100 µM (inactive)
MDA-MB-231
  GI50: > 100 µM (inactive)
OVCAR-3
  GI50: > 100 µM (inactive)
HCT-116
  GI50: 88.1 µM (inactive)
UACC-257
  GI50: > 100 µM (inactive)
MDA-N
  GI50: > 100 µM (inactive)
Malme-3M
  GI50: > 100 µM (inactive)
RXF 393
  GI50: > 100 µM (inactive)

## CS(=O)(=O)OCCCCOS(=O)(=O)CF
NCI-H522
  GI50: > 100 µM (inactive)
NCI-H23
  GI50: > 100 µM (inactive)
SNB-19
  GI50: > 100 µM (inactive)
Hs-578T
  GI50: > 100 µM (inactive)
K562
  GI50: > 100 µM (inactive)
PC-3
  GI50: > 100 µM (inactive)
OVCAR-4
  GI50: > 100 µM (inactive)
DU-145
  GI50: > 100 µM (inactive)
SF-295
  GI50: > 100 µM (inactive)
TK-10
  GI50: > 100 µM (inactive)
EKVX
  GI50: > 100 µM (inactive)
U-251
  GI50: > 100 µM (inactive)
MDA-MB-435
  GI50: > 100 µM (inactive)
OVCAR-8
  GI50: > 100 µM (inactive)
HCT-15
  GI50: > 100 µM
SW-620
  GI50: > 100 µM (inactive)
SNB-75
  GI50: > 100 µM (inactive)
A498
  GI50: > 100 µM (inactive)
OVCAR-5
  GI50: > 100 µM (inactive)
ACHN
  GI50: 52.6 µM (inactive)
COLO 205
  GI50: > 100 µM (inactive)
SF-539
  GI50: > 100 µM (inactive)
SR
  GI50: > 73.3 µM (inactive)
M14
  GI50: > 100 µM (inactive)
HCC 2998
  GI50: > 100 µM (inactive)
HT-29
  GI50: > 100 µM (inactive)
SK-MEL-28
  GI50: > 100 µM (inactive)
UO-31
  GI50: > 100 µM (inactive)
IGROV-1
  GI50: > 91.4 µM (inactive)
MOLT-4
  GI50: 32.9 µM (inactive)
SF-268
  GI50: > 100 µM (inactive)
A549
  GI50: > 100 µM (inactive)
SK-OV-3
  GI50: > 100 µM (inactive)
T47D
  GI50: > 100 µM (inactive)
CCRF-CEM
  GI50: 52.4 µM (inactive)
CAKI-1
  GI50: > 72.1 µM (inactive)
LOX IMVI
  GI50: > 100 µM (inactive)
NCI/ADR-RES
  GI50: > 100 µM (inactive)
HOP-62
  GI50: > 100 µM (inactive)
BT-549
  GI50: > 100 µM (inactive)
SN12C
  GI50: > 100 µM (inactive)
HL-60
  GI50: 33.5 µM (inactive)
RPMI-8226
  GI50: > 100 µM (inactive)
KM12
  GI50: > 100 µM (inactive)
SK-MEL-2
  GI50: > 100 µM (inactive)
NCI-H460
  GI50: 56 µM (inactive)
SK-MEL-5
  GI50: > 100 µM (inactive)
UACC-62
  GI50: > 100 µM (inactive)
NCI-H226
  GI50: > 100 µM (inactive)
HOP-92
  GI50: > 49.5 µM (inactive)
MCF7
  GI50: > 95.1 µM (inactive)
786-0
  GI50: > 100 µM (inactive)
MDA-MB-231
  GI50: > 100 µM (inactive)
OVCAR-3
  GI50: > 100 µM (inactive)
HCT-116
  GI50: > 100 µM (inactive)
UACC-257
  GI50: > 100 µM (inactive)
MDA-N
  GI50: > 100 µM (inactive)
Malme-3M
  GI50: > 46.5 µM (inactive)
RXF 393
  GI50: > 100 µM (inactive)
